Test results taken from patent publication US20240374573A1, “IMIDAZOLE CONTAINING COMPOUNDS, DERIVATIVES THEREFORE, AND USES THEREOF” (AglaeaPharma Inc., priority 2023, published 2024).

biological target: T1, α2AAR (α2A-adrenergic receptor) (Homo sapiens, UniProt P08913); assay: α2AAR FLIPR assay (agonist activity); type: cell-based; settings: FLIPR, α2AAR cell line hosted in HEK293 cells; read-out: α2A agonist activity (EC50)
T1 construct: expressed in transfected cells; host or cells: HEK293
T1 sequence (P08913 1-465): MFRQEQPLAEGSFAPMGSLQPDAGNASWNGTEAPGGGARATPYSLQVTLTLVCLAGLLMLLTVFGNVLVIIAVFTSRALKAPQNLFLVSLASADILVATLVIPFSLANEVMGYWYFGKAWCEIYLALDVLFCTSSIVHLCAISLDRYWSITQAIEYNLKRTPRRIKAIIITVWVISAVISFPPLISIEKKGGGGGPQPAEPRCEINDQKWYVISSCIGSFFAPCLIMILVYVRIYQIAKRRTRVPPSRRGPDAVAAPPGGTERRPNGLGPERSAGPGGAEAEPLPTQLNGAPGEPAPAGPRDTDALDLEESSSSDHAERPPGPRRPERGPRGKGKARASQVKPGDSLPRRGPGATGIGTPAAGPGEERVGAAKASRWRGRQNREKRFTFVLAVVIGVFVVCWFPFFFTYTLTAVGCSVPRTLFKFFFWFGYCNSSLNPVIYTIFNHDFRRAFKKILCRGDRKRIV
Experimental: This experimental protocol involved cell seeding and a FLIPR assay using the α2AAR (α2A-adrenergic receptor) cell line hosted in HEK293 cells. […] On Day 1, the cell seeding process started with the removal of the culture medium, followed by rinsing the cells with DPBS (21-031-CVC, Corning). […] The cells were detached, resuspended in growth media, and centrifuged at room temperature at 1000 rpm for 5 minutes. After discarding the supernatant, the cell pellet was resuspended in growth media to a concentration of 10× 10^5 cells per mL. This suspension was added to 384-well plates (19-Jul-38, Greiner) at 20 μL per well and incubated overnight at 37° C. in 5% CO2.
A 250 mM Probenecid solution was prepared in this buffer. The Fluo-4 Direct™ Loading Buffer was made by dissolving Fluo-4 Direct™ crystals (F10471, Invitrogen) in the FLIPR Assay Buffer and adding Probenecid. The buffer was then vortexed and allowed to stand for over 5 minutes, shielded from light. For the FLIPR procedure, testing compounds for agonist activite were serially diluted and transferred to a 384-well compound plate (25-Jan-39, Greiner). The cell plate was then treated with 2× Fluo-4 Direct™ loading buffer and incubated for 50 minutes at 37° C. in a 5% CO2 atmosphere, followed by 10 minutes at room temperature. Subsequently, the FLIPR assay buffer was added to the compound plate, which is then centrifuged.
The cell plate was analyzed in the FLIPR Tetra+ System for fluorescence signals. For the agonist test, reference compounds were added to the cell plates, and fluorescence was measured. The “Max-Min” calculation began from Read 1 to the maximum allowed. The data were analyzed using Prism software to calculate activation percentage for agonists and inhibition percentage for antagonists. The results were then fitted using specific models to determine EC50 for agonists.
The experimental protocol utilized various reagents and apparatus, including Penicillin/Streptomycin (100×) (SV30010, Hyclone), Poly-L-lysine hydrobromide (P1399, Sigma), and different types of 384-well plates such as the 384-Well PP 2.0 Microplate (PP-0200, LABCYTE) and 384 well Low Dead Volume Microplate (LP-0200, LABCYTE). The use of specific reference compounds like UK14304 was also integral to the assay.

Row | EC50 [nM] | SMILES
1 | 10 to 50 | Cc1cccc(C(Cc2cccc(NS(=O)(=O)C3CCOCC3)c2)c2c[nH]cn2)c1C (stereo not shown) [compound 134]
2 | 10 to 50 | Cc1cccc(C(COCCNS(=O)(=O)CC2CCOCC2)c2c[nH]cn2)c1C (stereo not shown) [compound 139]
3 | 50 to 250 | Cc1cccc(C(c2cccc(NC(=O)CC[n+]3ccccc3)c2)c2c[nH]cn2)c1C (stereo not shown) [compound 143]
4 | 10 to 50 | Cc1cccc(C(c2cccc(C(=O)NOC3CCOCC3)c2)c2c[nH]cn2)c1C (stereo not shown) [compound 145]
5 | 10 to 50 | CNC(=O)Nc1cccc(C(c2c[nH]cn2)c2cccc(C)c2C)n1 (stereo not shown) [compound 146]
6 | 10 to 50 | COCCC(=O)Nc1cccc(C(c2c[nH]cn2)c2cccc(C)c2C)c1 (stereo not shown) [compound 147]
7 | 10 to 50 | COCCCC(=O)Nc1cccc(C(c2c[nH]cn2)c2cccc(C)c2C)c1 (stereo not shown) [compound 148]
8 | 10 to 50 | Cc1cccc(C(c2cccc(NC(=O)C3CCOCC3)c2)c2c[nH]cn2)c1C (stereo not shown) [compound 149]
9 | 10 to 50 | Cc1cccc(C(c2c[nH]cn2)c2cccc(C(=O)NOC3CCOCC3)n2)c1C (stereo not shown) [compound 152]
10 | 10 to 50 | Cc1cccc(C(c2cccc(NC(=O)CC3CCCO3)c2)c2c[nH]cn2)c1C (stereo not shown) [compound 153]
11 | < 10 | Cc1cccc(C(Cc2ccc(NC(=O)C3CCOCC3)cc2)c2c[nH]cn2)c1C (stereo not shown) [compound 157]
12 | 10 to 50 | Cc1cn(-c2cccc(C(c3c[nH]cn3)c3cccc(C)c3C)c2)nn1 (stereo not shown) [compound 160]
13 | 10 to 50 | Cc1cccc(C(c2cccc(NC(=S)CC3CCOCC3)c2)c2c[nH]cn2)c1C (stereo not shown) [compound 161]
14 | 10 to 50 | Cc1cccc(C(c2cccc(S(=O)(=O)NC3CCOCC3)c2)c2c[nH]cn2)c1C (stereo not shown) [compound 162]

Further lines, the molecule ahead of its results:

Row | SMILES | EC50 [nM]
15 | Cc1cccc(C(c2cccc(NC(=O)CCN3CCNCC3)c2)c2c[nH]cn2)c1C (stereo not shown) [compound 90] | 50 to 250
16 | Cc1cccc(C(c2cccc(NS(=O)(=O)CCN3CCOCC3)c2)c2c[nH]cn2)c1C (stereo not shown) [compound 94] | 50 to 250
17 | Cc1cccc(C(c2cccc(NC(=O)CC3CCCCO3)c2)c2c[nH]cn2)c1C (stereo not shown) [compound 96] | 10 to 50
18 | CC(=O)N1CCC(CC(=O)Nc2cccc(C(c3c[nH]cn3)c3cccc(C)c3C)c2)CC1 (stereo not shown) [compound 102] | 10 to 50
19 | Cc1cccc(C(c2cccc(NC(=O)CC3CCCOC3)c2)c2c[nH]cn2)c1C (stereo not shown) [compound 104] | 10 to 50
20 | Cc1cccc(C(c2cccc(NC(=O)CC3CCS(=O)(=O)CC3)c2)c2c[nH]cn2)c1C (stereo not shown) [compound 117] | < 10
21 | Cc1cccc(C(c2cccc(NS(=O)(=O)CC3CCOCC3)c2)c2c[nH]cn2)c1C (stereo not shown) [compound 119] | 10 to 50
22 | Cc1cccc(C(c2cccc(NC(=O)CC3=CCOCC3)c2)c2c[nH]cn2)c1C (stereo not shown) [compound 120] | < 10
23 | Cc1cccc(C(c2cccc(NC(=O)CN3CCC(O)CC3)c2)c2c[nH]cn2)c1C (stereo not shown) [compound 123] | 10 to 50
24 | Cc1cccc(C(c2c[nH]cn2)c2cccc(C(=O)NCC3CCOCC3)c2F)c1C (stereo not shown) [compound 124] | 10 to 50
25 | CCOP(=O)(OCC)c1cccc(C(c2c[nH]cn2)c2cccc(C)c2C)c1 (stereo not shown) [compound 126] | 10 to 50
26 | Cc1cccc(C(c2cccc(S(N)(=O)=O)c2)c2c[nH]cn2)c1C (stereo not shown) [compound 133] | 10 to 50

biological target: T2, α2AAR (Homo sapiens, UniProt P08913); assay: α2AAR binding assay ([3H]-RX 821002 radioligand); settings: [3H]-RX 821002 0.5 nM, HEK293 membranes; read-out: α2A affinity (Ki)
T2 construct: host or cells: HEK293 (membranes)
T2 sequence (P08913 1-465): T1 sequence (P08913 1-465)

Row | Ki [nM] | SMILES
27 | < 10 | Cc1cccc(C(Cc2cccc(NS(=O)(=O)C3CCOCC3)c2)c2c[nH]cn2)c1C (stereo not shown) [compound 134]
28 | 10 to 50 | Cc1cccc(C(COCCNS(=O)(=O)CC2CCOCC2)c2c[nH]cn2)c1C (stereo not shown) [compound 139]
29 | 10 to 50 | Cc1cccc(C(c2cccc(NC(=O)CC[n+]3ccccc3)c2)c2c[nH]cn2)c1C (stereo not shown) [compound 143]
30 | < 10 | Cc1cccc(C(c2cccc(C(=O)NOC3CCOCC3)c2)c2c[nH]cn2)c1C (stereo not shown) [compound 145]
31 | 10 to 50 | CNC(=O)Nc1cccc(C(c2c[nH]cn2)c2cccc(C)c2C)n1 (stereo not shown) [compound 146]
32 | 10 to 50 | COCCC(=O)Nc1cccc(C(c2c[nH]cn2)c2cccc(C)c2C)c1 (stereo not shown) [compound 147]
33 | 10 to 50 | COCCCC(=O)Nc1cccc(C(c2c[nH]cn2)c2cccc(C)c2C)c1 (stereo not shown) [compound 148]
34 | 10 to 50 | Cc1cccc(C(c2cccc(NC(=O)C3CCOCC3)c2)c2c[nH]cn2)c1C (stereo not shown) [compound 149]
35 | < 10 | Cc1cccc(C(c2c[nH]cn2)c2cccc(C(=O)NOC3CCOCC3)n2)c1C (stereo not shown) [compound 152]
36 | 10 to 50 | Cc1cccc(C(c2cccc(NC(=O)CC3CCCO3)c2)c2c[nH]cn2)c1C (stereo not shown) [compound 153]
37 | < 10 | Cc1cccc(C(Cc2ccc(NC(=O)C3CCOCC3)cc2)c2c[nH]cn2)c1C (stereo not shown) [compound 157]
38 | 10 to 50 | Cc1cn(-c2cccc(C(c3c[nH]cn3)c3cccc(C)c3C)c2)nn1 (stereo not shown) [compound 160]
39 | < 10 | Cc1cccc(C(c2cccc(NC(=S)CC3CCOCC3)c2)c2c[nH]cn2)c1C (stereo not shown) [compound 161]
40 | < 10 | Cc1cccc(C(c2cccc(S(=O)(=O)NC3CCOCC3)c2)c2c[nH]cn2)c1C (stereo not shown) [compound 162]

More lines, now with the values behind:

Row | SMILES | Ki [nM]
41 | Cc1cccc(C(c2cccc(NC(=O)CCN3CCNCC3)c2)c2c[nH]cn2)c1C (stereo not shown) [compound 90] | 50 to 250
42 | Cc1cccc(C(c2cccc(NS(=O)(=O)CCN3CCOCC3)c2)c2c[nH]cn2)c1C (stereo not shown) [compound 94] | 50 to 250
43 | Cc1cccc(C(c2cccc(NC(=O)CC3CCCCO3)c2)c2c[nH]cn2)c1C (stereo not shown) [compound 96] | < 10
44 | CC(=O)N1CCC(CC(=O)Nc2cccc(C(c3c[nH]cn3)c3cccc(C)c3C)c2)CC1 (stereo not shown) [compound 102] | 10 to 50
45 | Cc1cccc(C(c2cccc(NC(=O)CC3CCCOC3)c2)c2c[nH]cn2)c1C (stereo not shown) [compound 104] | < 10
46 | Cc1cccc(C(c2cccc(NC(=O)CC3CCS(=O)(=O)CC3)c2)c2c[nH]cn2)c1C (stereo not shown) [compound 117] | 10 to 50
47 | Cc1cccc(C(c2cccc(NS(=O)(=O)CC3CCOCC3)c2)c2c[nH]cn2)c1C (stereo not shown) [compound 119] | < 10
48 | Cc1cccc(C(c2cccc(NC(=O)CC3=CCOCC3)c2)c2c[nH]cn2)c1C (stereo not shown) [compound 120] | < 10
49 | Cc1cccc(C(c2cccc(NC(=O)CN3CCC(O)CC3)c2)c2c[nH]cn2)c1C (stereo not shown) [compound 123] | < 10
50 | Cc1cccc(C(c2c[nH]cn2)c2cccc(C(=O)NCC3CCOCC3)c2F)c1C (stereo not shown) [compound 124] | < 10
51 | CCOP(=O)(OCC)c1cccc(C(c2c[nH]cn2)c2cccc(C)c2C)c1 (stereo not shown) [compound 126] | < 10
52 | Cc1cccc(C(c2cccc(S(N)(=O)=O)c2)c2c[nH]cn2)c1C (stereo not shown) [compound 133] | 10 to 50
